# Measurements published in patent publication US12378211B2, “Carbonic anhydrase inhibitors and antibiotics against multidrug resistant bacteria” (Purdue Research Foundation, priority 2018, dated 2025).
# Like-named read-outs stand apart in the source and are kept apart here.
# Assays:
# [1] = test system: Enterococcus fecalis Strain SF 24397 NR31970; test: MIC of CAIs in BHIB and TSB; type: cell-based; settings: Enterococcus, read-out: MIC
# Protocol: (§1) The minimum inhibitory concentrations (MICs) of CAIs were tested against clinical isolates of vancomycin sensitive and vancomycin resistant Enterococci strains as per the guidelines provided by the Clinical and Laboratory Standards Institute (CLSI). The selected strains of Enterococci were streaked on Tryptic Soy Agar (TSA) plates and let grow for 24 hours at 37° C. Afterwards, a bacterial solution equivalent to 0.5 McFarland standard was prepared and diluted in tryptone soy broth (TSB) or brain heart infusion broth (BHIB) to achieve a bacterial concentration of about 5×10^5 CFU/mL and seeded in 96-well well plates. Compounds and control drugs were added in the first row of the 96-well plates and serially diluted along the plates. Plates were then incubated aerobically at 37° C. for 18-20 hours. MICs reported in Table 5 are the minimum concentration of the compounds/control drugs that could inhibit completely the visual growth of the bacteria.
# [2] = test system: Enterococcus faecalis—S613 HM-334; test: MIC of CAIs in BHIB and TSB; type: cell-based; settings: Enterococcus, read-out: MIC
# Protocol: as §1, with “bacteria. The MIC values of CAIs against the tested VRE strains were higher in BHIB than in TSB. This may be due to binding of these drugs to proteins. […] They inhibited the VRE strains at MIC values ranging from 1 to 4 μg/mL.” for “bacteria.”
# [3] = test system: human colorectal adenocarcinoma (Caco-2) cell; test: In vitro cytotoxicity, MTS assay, Caco-2 cells; settings: at concentration up to 128 μg/mL; tested at 64 and 128 μg/mL; two hours
# Protocol: Method: Compounds AS005H, AS005J, AS004B, AS005K, AS005A and 005D were assayed (at concentrations of 64 and 128 μg/mL) against a human colorectal adenocarcinoma (Caco-2) cell to determine the potential toxic effect to mammalian cells in vitro. Briefly, cells were cultured in Dulbecco's Modified Eagle Medium (DMEM) supplemented with 20% fetal bovine serum (FBS), non-essential amino acids (1×), penicillin-streptomycin at 37° C. with CO2 (5%). Control cells received DMSO alone at a concentration equal to that in drug-treated cell samples. The cells were incubated with the compounds (in triplicate) in a 96-well plate at 37° C. with CO2 (5%) for two hours. The assay reagent MTS 3-(4,5-dimethylthiazol-2-yl)-5-(3-carboxymethoxyphenyl)-2-(4-sulfophenyl)-2H-tetrazolium) (Promega, Madison, WI, USA) was subsequently added and the plate was incubated for four hours. Absorbance readings (at OD490) were taken using a kinetic microplate reader (Molecular Devices, Sunnyvale, CA, USA). The quantity of viable cells after treatment with each compound was expressed as a percentage of the viability of DMSO-treated control cells (average of triplicate wells±standard deviation). The toxicity data was analyzed via a two-way ANOVA, with post hoc Dunnet's multiple comparisons test (P<0.05), utilizing GraphPad Prism 6.0 (GraphPad Software, La Jolla, CA).
# Percent viable mammalian cells (measured as average absorbance ratio (test agent relative to DMSO) for cytotoxicity analysis of AS005H, AS005J, AS004B, AS005K, AS005A and 005D compounds (tested in triplicate) at 64 and 128 μg/mL against Caco-2 cells using the MTS 3-(4,5-dimethylthiazol-2-yl)-5-(3-carboxymethoxyphenyl)-2-(4-sulfophenyl)-2H-tetrazolium) assay. Dimethyl sulfoxide (DMSO) was used as a negative control to determine a baseline measurement for the cytotoxic impact of each compound. The absorbance values represent an average of a minimum of three samples analyzed for each compound. Error bars represent standard deviation values for the absorbance values. […]
# [4] = test system: vancomycin-resistant E. faecium; test: Mouse model of GI colonization by VRE; type: in vivo, C57BL/6 mice
# From the text: Feasibility in vivo study: AZM reduces VRE load in the intestines and faeces. The promising feature, and the specific and potent antimicrobial activity of CAIs, prompted us to evaluate the in vivo efficacy of AZM in our established mouse model of GI colonization by enterococci with features that mimic the antibiotic-induced enterococcal expansion observed in humans (Mohammad, H. et al., Int J Antimicrob Agents 2018, 51, 897-904; Abdelkhalek, A, et al., PLoS One 2018, 13, e0199710). We tested AZM (two clinical doses 10 and 20 mg/kg) in female 12-week-old C57BL/6 mice (n=5 mice per group) that were sensitized with ampicillin ([…] in drinking water) for 7 days to reduce the microbiota present in the gastrointestinal tract and colonized with 10^8 CFU/mL of vancomycin-resistant E. faecium.
# We thought that the rapid absorption of AZM from the gastrointestinal tract would limit their exposure time to VRE present in the gastrointestinal tract.
# Mice were treated for 8 days with 10 mg/kg of drugs by oral gavage.
# E. faecium NR 31909 = settings: oral 20 mg/kg daily for 4 days
# From the text: Saline was used as a negative control. Mice were euthanized on day 5 and organs (liver, spleen and kidneys) were aseptically removed and homogenized, and viable VRE were enumerated by serial dilution and plating.
# [5] = test system: Enterococcus faecium E417-HM-965; test: MIC of CAIs in BHIB and TSB; type: cell-based; settings: Enterococcus faecium, read-out: MIC
# Protocol: as §1
# [6] = test system: Enterococcus faecium Patient #2-1-NR-31909; test: MIC of CAIs in BHIB and TSB; type: cell-based; settings: Enterococcus faecium, read-out: MIC
# Protocol: as §1
# [7] = cited from earlier work
# [8] = cited from earlier work; remark: listed apart in the source
structure (smiles),measurement,setting,value
"CC(=O)NC[C@H]1CN(c2ccc(N3CCOCC3)c(F)c2)C(=O)O1 [Linezolid, reference compound]",MIC,"[1]; TSB, Table 5",1 µg/mL
same,MIC,[2]; BHIIB,1 µg/mL
same,MIC,"[2]; TSB, Table 5",1 µg/mL
"CCc1ccc(C(=O)Nc2nnc(S(N)(=O)=O)s2)cc1 [CAI0017, 4-Ethyl-N-(5-sulfamoyl-1,3,4-thiadiazol-2-yl)benzamide]",toxicity to Caco-2 cells (percent viable cells relative to DMSO),[3],non-toxic
"CC(C)C(=O)Nc1nnc(S(N)(=O)=O)s1 [CAI0011, N-(5-Sulfamoyl-1,3,4-thiadiazol-2-yl) isobutyramide]",toxicity to Caco-2 cells (percent viable cells relative to DMSO),[3],non-toxic
"CC(=O)Nc1nnc(S(N)(=O)=O)s1 [Acetazolamide, reference compound]",VRE decolonization compared with linezolid,"[4]; AZM 10 and 20 mg/kg, linezolid 10 mg/kg once daily for 8 days",outperformed linezolid
same,"VRE in feces, cecal content and ileal content compared to control mice","[4]; once a day at 10 mg/kg or 20 mg/kg, feces as early as 3rd day",significant reduction
same,mice protected against a lethal dose (survival),E. faecium NR 31909; from two hours after challenge,100%
same,reduction of bacterial load in internal organs,"E. faecium NR 31909; liver, spleen, kidneys on day 5",superior to linezolid
same,MIC,"[5]; E417HM965, BHIB",8 µg/mL
same,MIC,"[5]; E417HM965, TSB, Table 5",2 µg/mL
same,MIC,[1]; BHIB,> 128 µg/mL
same,MIC,"[1]; TSB, Table 5",2 µg/mL
same,MIC,[6]; BHIB,64 µg/mL
same,MIC,"[6]; TSB, Table 5",2 µg/mL
same,oral LD50 (mouse),[7],4300 mg/kg
same,MIC,[2]; BHIIB,> 128 µg/mL
same,MIC,"[2]; TSB, Table 5",2 µg/mL
same,time to peak plasma concentrations,[8]; after oral administration,1 to 3 h
same,serum concentration,[8]; after single oral dose,20000 to 100000 ng/mL
"CC(C)(C)C(=O)Nc1nnc(S(N)(=O)=O)s1 [CAI0010, N-(5-Sulfamoyl-1,3,4-thiadiazol-2-yl) pivalamide]",toxicity to Caco-2 cells (percent viable cells relative to DMSO),[3],non-toxic
